Experimental data from ChEMBL document CHEMBL3046315, “Synthesis and Fungicidal Activity of New Thiophosphorylated Monoterpenoids and Related Compounds” (1996).

System: Athelia rolfsii
Experiment: Fungicidal activity against Athelia rolfsii assessed as growth inhibition at 100 ppm after 5 days by agar dilution test
Format: functional
Settings: Agroathelia rolfsii, 120 h; read-out: GI

SMILES	inhibition of growth at 100 ppm [%]
C=CCc1ccc(O)c(OC)c1 [EUGENOL]	67.6
CCOP(=S)(Oc1cc(C(C)C)ccc1C)Oc1cc(C(C)C)ccc1C [DIISOTHYMOL PHOSPHOROTHIONATE]	36.8
CCOP(=S)(OCCc1ccccc1)OCCc1ccccc1 [DIPHENETHYL ETHYL PHOSPHOROTHIONATE]	33.4
CCOP(O)(=S)OCCC(C)CCC=C(C)C (configuration not stated)	70.7
OCCc1ccccc1 [PHENYLETHYL ALCOHOL]	0
C=CCc1ccc(OP(=S)(OC)OC)c(OC)c1	90.5
Cc1ccc(C(C)C)c(OP(=S)(Oc2cc(C)ccc2C(C)C)c2ccccc2)c1	0
CCOP(O)(=S)Oc1cc(C)ccc1C(C)C (configuration not stated)	46
Cc1ccc(C(C)C)c(O)c1 [THYMOL]	71
CCOP(=S)(Oc1cc(C)ccc1C(C)C)Oc1cc(C)ccc1C(C)C [DITHYMOL PHOSPHOROTHIONATE]	30.3
CCOP(=S)(OCC)OCCc1ccccc1	95.1
CCOP(=S)(OCC)Oc1cc(C(C)C)ccc1C	58.2
COP(=S)(OC)Oc1cc(C(C)C)ccc1C	85.2
C=CCc1ccc(OP(O)(=S)OCC)c(OC)c1 (configuration not stated)	24.7
Cc1ccc(O)c(C(C)C)c1 [ISOTHYMOL]	72.4
C=CCc1ccc(OP(=S)(OCC)OCC)c(OC)c1	60.2
CCOP(=S)(OCC)OCCC(C)CCC=C(C)C (configuration not stated)	31.3
CC(C)OP(=O)(OC(C)C)SCc1ccccc1 [IPROBENFOS]	100
CCOP(O)(=S)OCCc1ccccc1 (configuration not stated)	29.2
C=CCc1ccc(OP(=S)(OCC)Oc2ccc(CC=C)cc2OC)c(OC)c1 [DIEUGENOL PHOSPHOROTHIONATE]	6.1
CCOP(=S)(OCCC(C)CCC=C(C)C)OCCC(C)CCC=C(C)C (configuration not stated) [DICITRONELLYL PHOSPHOROTHIONATE]	30.3
CCOP(=S)(OCC)Oc1cc(C)ccc1C(C)C	56.8
CC(C)=CCCC(C)CCO (configuration not stated) [CITRONELLOL]	23.9
COP(=S)(OC)OCCC(C)CCC=C(C)C (configuration not stated)	76.9
COP(=S)(OC)OCCc1ccccc1	100
Cc1ccc(C(C)C)cc1OP(=S)(Oc1cc(C(C)C)ccc1C)c1ccccc1	0
CCOP(O)(=S)Oc1cc(C(C)C)ccc1C (configuration not stated) [ETHYL ISOTHYMYL HYDROGENPHOSPHOROTHIONATE]	54.9
COP(=S)(OC)Oc1cc(C)ccc1C(C)C	84.3

System: Athelia rolfsii
Experiment: Fungicidal activity against Athelia rolfsii assessed as growth inhibition at 10 ppm after 5 days by agar dilution test
Format: functional
Settings: Agroathelia rolfsii, 120 h; read-out: GI

SMILES	inhibition of growth at 10 ppm [%]
C=CCc1ccc(O)c(OC)c1 [EUGENOL]	5.9
CCOP(O)(=S)OCCC(C)CCC=C(C)C (configuration not stated)	0
C=CCc1ccc(OP(=S)(OC)OC)c(OC)c1	38.5
Cc1ccc(C(C)C)c(O)c1 [THYMOL]	28.3
CCOP(=S)(OCC)OCCc1ccccc1	42.3
COP(=S)(OC)Oc1cc(C(C)C)ccc1C	37.5
Cc1ccc(O)c(C(C)C)c1 [ISOTHYMOL]	38
CC(C)OP(=O)(OC(C)C)SCc1ccccc1 [IPROBENFOS]	68.8
COP(=S)(OC)OCCC(C)CCC=C(C)C (configuration not stated)	36.2
COP(=S)(OC)OCCc1ccccc1	56.6
COP(=S)(OC)Oc1cc(C)ccc1C(C)C	29.3

System: Pythium
Experiment: Fungicidal activity against Pythium sp. assessed as growth inhibition at 100 ppm after 5 days by agar dilution test
Format: functional
Settings: 120 h, read-out: GI

SMILES	inhibition of growth at 100 ppm [%]
C=CCc1ccc(O)c(OC)c1 [EUGENOL]	92.7
CCOP(=S)(Oc1cc(C(C)C)ccc1C)Oc1cc(C(C)C)ccc1C [DIISOTHYMOL PHOSPHOROTHIONATE]	67
CCOP(=S)(OCCc1ccccc1)OCCc1ccccc1 [DIPHENETHYL ETHYL PHOSPHOROTHIONATE]	23.3
CCOP(O)(=S)OCCC(C)CCC=C(C)C (configuration not stated)	67
OCCc1ccccc1 [PHENYLETHYL ALCOHOL]	50.9
C=CCc1ccc(OP(=S)(OC)OC)c(OC)c1	44.9
Cc1ccc(C(C)C)c(OP(=S)(Oc2cc(C)ccc2C(C)C)c2ccccc2)c1	1.3
CCOP(O)(=S)Oc1cc(C)ccc1C(C)C (configuration not stated)	55.7
Cc1ccc(C(C)C)c(O)c1 [THYMOL]	93
CCOP(=S)(Oc1cc(C)ccc1C(C)C)Oc1cc(C)ccc1C(C)C [DITHYMOL PHOSPHOROTHIONATE]	58.4
CCOP(=S)(OCC)OCCc1ccccc1	68.8
CCOP(=S)(OCC)Oc1cc(C(C)C)ccc1C	19.8
COP(=S)(OC)Oc1cc(C(C)C)ccc1C	61.1
C=CCc1ccc(OP(O)(=S)OCC)c(OC)c1 (configuration not stated)	37.3
Cc1ccc(O)c(C(C)C)c1 [ISOTHYMOL]	94.3
C=CCc1ccc(OP(=S)(OCC)OCC)c(OC)c1	34.3
CCOP(=S)(OCC)OCCC(C)CCC=C(C)C (configuration not stated)	10.2
CC(C)OP(=O)(OC(C)C)SCc1ccccc1 [IPROBENFOS]	88.5
CCOP(O)(=S)OCCc1ccccc1 (configuration not stated)	61.1
C=CCc1ccc(OP(=S)(OCC)Oc2ccc(CC=C)cc2OC)c(OC)c1 [DIEUGENOL PHOSPHOROTHIONATE]	34.6
CCOP(=S)(OCCC(C)CCC=C(C)C)OCCC(C)CCC=C(C)C (configuration not stated) [DICITRONELLYL PHOSPHOROTHIONATE]	64.5
CCOP(=S)(OCC)Oc1cc(C)ccc1C(C)C	52.9
CC(C)=CCCC(C)CCO (configuration not stated) [CITRONELLOL]	68.9
COP(=S)(OC)OCCC(C)CCC=C(C)C (configuration not stated)	30
COP(=S)(OC)OCCc1ccccc1	89.8
Cc1ccc(C(C)C)cc1OP(=S)(Oc1cc(C(C)C)ccc1C)c1ccccc1	0
CCOP(O)(=S)Oc1cc(C(C)C)ccc1C (configuration not stated) [ETHYL ISOTHYMYL HYDROGENPHOSPHOROTHIONATE]	71
COP(=S)(OC)Oc1cc(C)ccc1C(C)C	67.4

System: Pythium
Experiment: Fungicidal activity against Pythium sp. assessed as growth inhibition at 10 ppm after 5 days by agar dilution test
Format: functional
Settings: 120 h, read-out: GI

SMILES	inhibition of growth at 10 ppm [%]
C=CCc1ccc(O)c(OC)c1 [EUGENOL]	7.4
CCOP(O)(=S)OCCC(C)CCC=C(C)C (configuration not stated)	15.8
Cc1ccc(C(C)C)c(O)c1 [THYMOL]	29.6
COP(=S)(OC)Oc1cc(C(C)C)ccc1C	22.8
Cc1ccc(O)c(C(C)C)c1 [ISOTHYMOL]	24.2
CC(C)OP(=O)(OC(C)C)SCc1ccccc1 [IPROBENFOS]	41.7
CC(C)=CCCC(C)CCO (configuration not stated) [CITRONELLOL]	0
COP(=S)(OC)OCCc1ccccc1	39.6
CCOP(O)(=S)Oc1cc(C(C)C)ccc1C (configuration not stated) [ETHYL ISOTHYMYL HYDROGENPHOSPHOROTHIONATE]	10.4
COP(=S)(OC)Oc1cc(C)ccc1C(C)C	32.5
